Laboratory results reported in patent US8357659B2, “Method of treating pain or itching with APETx2 peptide toxin” (priority 2008, dated 2013).

Legend:
[1] = biological target: T1, heteromer ASIC1b+3 (Rattus norvegicus, UniProt O35240+P55926); conditions: relative to ASIC3 / ASIC2b+3; cited from earlier work
T1 sequence (P55926 1-559 isoform P55926-3): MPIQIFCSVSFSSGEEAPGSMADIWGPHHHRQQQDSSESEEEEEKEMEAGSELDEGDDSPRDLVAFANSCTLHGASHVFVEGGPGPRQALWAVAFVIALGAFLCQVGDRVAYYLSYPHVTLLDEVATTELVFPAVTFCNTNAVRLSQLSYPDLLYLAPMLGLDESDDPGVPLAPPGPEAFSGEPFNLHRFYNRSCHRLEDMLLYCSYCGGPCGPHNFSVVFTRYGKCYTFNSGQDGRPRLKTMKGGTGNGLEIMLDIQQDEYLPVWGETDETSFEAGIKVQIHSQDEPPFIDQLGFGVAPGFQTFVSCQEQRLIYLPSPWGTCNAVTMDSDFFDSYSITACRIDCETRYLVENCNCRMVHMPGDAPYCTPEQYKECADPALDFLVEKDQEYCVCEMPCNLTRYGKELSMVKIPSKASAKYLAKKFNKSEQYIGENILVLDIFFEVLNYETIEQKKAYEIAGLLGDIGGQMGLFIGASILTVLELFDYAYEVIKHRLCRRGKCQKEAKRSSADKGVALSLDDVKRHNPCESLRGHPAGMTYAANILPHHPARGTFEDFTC
T1 sequence (O35240 1-533): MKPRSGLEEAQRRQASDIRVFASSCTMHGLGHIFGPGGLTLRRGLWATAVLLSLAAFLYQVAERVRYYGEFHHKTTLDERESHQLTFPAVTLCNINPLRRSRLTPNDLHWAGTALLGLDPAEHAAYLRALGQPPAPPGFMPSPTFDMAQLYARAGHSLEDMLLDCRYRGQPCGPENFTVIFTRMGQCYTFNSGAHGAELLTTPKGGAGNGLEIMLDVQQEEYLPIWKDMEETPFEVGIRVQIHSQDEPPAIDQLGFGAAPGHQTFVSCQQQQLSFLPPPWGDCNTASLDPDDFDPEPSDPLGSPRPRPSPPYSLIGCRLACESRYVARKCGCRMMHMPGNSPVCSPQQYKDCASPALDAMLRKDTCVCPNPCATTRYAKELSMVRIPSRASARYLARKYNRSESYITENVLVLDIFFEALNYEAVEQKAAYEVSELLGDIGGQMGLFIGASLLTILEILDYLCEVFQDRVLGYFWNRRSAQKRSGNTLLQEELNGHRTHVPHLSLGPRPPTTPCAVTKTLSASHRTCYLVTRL

[2] = biological target: T2, ASIC2a (Rattus norvegicus, UniProt Q62962); conditions: cited from earlier work
T2 sequence (Q62962 1-512): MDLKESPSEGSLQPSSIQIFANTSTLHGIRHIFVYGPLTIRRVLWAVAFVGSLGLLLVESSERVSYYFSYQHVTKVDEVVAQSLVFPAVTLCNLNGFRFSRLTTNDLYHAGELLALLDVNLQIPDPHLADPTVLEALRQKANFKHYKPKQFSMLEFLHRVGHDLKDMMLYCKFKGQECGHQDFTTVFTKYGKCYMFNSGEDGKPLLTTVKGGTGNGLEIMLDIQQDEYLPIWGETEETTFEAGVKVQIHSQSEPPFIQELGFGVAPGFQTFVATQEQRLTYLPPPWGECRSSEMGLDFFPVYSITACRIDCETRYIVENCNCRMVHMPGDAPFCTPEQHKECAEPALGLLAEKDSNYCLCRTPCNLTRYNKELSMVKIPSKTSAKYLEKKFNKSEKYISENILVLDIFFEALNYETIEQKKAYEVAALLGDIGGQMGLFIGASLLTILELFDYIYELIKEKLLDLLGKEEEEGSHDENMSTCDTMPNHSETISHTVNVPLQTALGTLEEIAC

[3] = test system: cutaneous pain induced by moderate acidification; test: Nociceptive behaviour in rats after subcutaneous injection of moderately acidic solutions; format: in vivo, rat; conditions: FIG. 5A
Description: Adult (7-8 weeks' old) male Wistar rats (Charles River, France) were placed in plastic cages with a nyctohemeral period of 12 h (with light between 8 a.m. and 8 p.m.) and with free access to food and water. The rats were left to acclimatize for at least one week before the experiments. For the behavioural experiments, the rats were placed in a transparent observation chamber where they were acclimatized for 20-30 minutes. They were subsequently immobilised while 20 μl of saline solution (0.9% or 2% of NaCl+20 mM of HEPES, […] or 60 nM of PcTx1 toxin), was administered subcutaneously to the dorsal side of the right hind paw using a 30G needle connected to a 100 μl Hamilton syringe. The nociceptive behaviour (i.e. the number of hind leg quiverings) was recorded over a 5-minute period, starting immediately after the injection ([ref. 59]).

peptide of 42 amino acids (SEQ ID NO: 3), three disulphide bonds, from sea anemone Anthopleura elegantissima; blocks ASIC3 [APETx2]
affinity for the heteromer ASIC1b+3 [1]: less affinity
effect on ASIC2a isoform [2]: does not have any effect
behaviour in response to acid pain with inflammatory signals ([3]; pH 6.9 + 2% NaCl + AA, 10 μM APETx2 or 60 nM PcTx1 in injected solution): markedly reduced
pain behaviour after subcutaneous injection of acidic solution ([3]; pH 6.9, 10 μM APETx2 in injected solution): suppressed
